The values below come from patent publication US12161695B2 (priority 2018, dated 2024).

For data set [1], the system named is iGABAARs in human pancreatic islet β cells. The data set is classed as cell-based. On the procedure: (§1) Human islets were generously provided by the Nordic Network for Clinical Islet Transplantation, supported by EXODIAB and the Juvenile Diabetes Research Foundation. All procedures were approved by the regional ethics committee in Uppsala and informed consent obtained by appropriate measures from donors or their relatives. […] The islets were then hand-picked and cultured free-floating in CMRL 1066 (ICN Biomedicals, Costa Mesa, CA, USA) supplemented with 10 mM HEPES, 2 mM L-glutamine, 50 jig/ml gentamicin, 0.25 jig/ml fungizone (GIBCO, BRL, Gaithersburg, MD, USA), 20 jig/ml ciprofloxacin (Bayer Healthcare, Leverkusen, Germany), and 10 mM nicotinamide at 37° C. in humidified atmosphere containing 5% CO2, vol/vol and used in the experiments from second day of incubation up to 10 days of culturing.
(§2) The whole-cell patch-clamp configuration was obtained on intact islets using the blind patch-clamp technique (Hamill et al., 1981; Jin et al., 2011; Neher and Sakmann, 1976) and single-channel currents were recorded at room temperature (20-22° C.) or at 34° C. The single intact islet was held by the holding pipette and approached by the recording pipette from the other side (see FIG. 1a). The holding and recording pipettes were made from borosilicate glass. During experiments, the pancreatic islets were perfused with the extracellular solution (mM): 137 NaCl, 5.6 KCl, 2.6 CaCl2, 1.2 MgCl2, 10 HEPES and 20 glucose (pH 7.4 using NaOH) at the rate of 3 mL/min. The intracellular solution consisted of (mM): 135 CsCl, 30 CsOH, 1 MgCl2, 10 EGTA, 5 HEPES and 3 Mg-ATP (pH 7.2 with HCl). Drugs were purchased from Sigma-Aldrich (Steinheim, Germany) or Ascent Scientific (Bristol, UK). Pentobarbital, propofol, GLP-1 and the GABAAR antagonist SR95531 were dissolved in the extracellular solution. Diazepam, zolpidem and the GABAAR antagonist picrotoxin stock solutions were made in dimethyl sulfoxide (DMSO) and then dissolved in the extracellular solution. […] Recordings were done using an Axopatch 200B amplifier, filtered at 2 kHz, digitized on-line at 10 kHz using an analog-to-digital converter and Clampex 10.5 (Molecular Devices, CA, USA) software. The access resistance was monitored and if it changed by more than 25%, the recording was rejected. The single-channel parameters (amplitude, frequency/opening rate, conductance, open probability Po, mean current Imean and mean open time To) were analyzed by Channel3 (Nicholas Laver, Derek Laver, the University of Newcastle, Australia) and Clampfit 10.5 (Molecular Devices, USA). We used a simplified version of a model, previously established by Jones and Westbrook (Jones and Westbrook, 1995) to describe the activation of GABAA receptors (see FIG. 2a model scheme). Simulations of opening rate and mean open time were generated from this theoretical model using the ‘Q-matrix’ method of Colquhoun and Hawkes (Colquhoun and Hawkes, 1981, 1982). We accounted for the effects of missed events due to filtering using the ‘effective rate constant’ method of Blatz and Magleby (Blatz and Magleby, 1986) incorporating an event dead-time of 0.1 ms.

For a further data set, the system named is iGABAARII
Kind of data set: whole-cell patch-clamp single-channel currents in β cells of intact human islets, iGABAARII
The data set is classed as cell-based. On the procedure: as §1, §2

The test system of data set [2] is insulin granule exocytosis in human islet cells. Kind of data set: insulin granule exocytosis imaging by TIRF microscopy. The data set is classed as cell-based. On the procedure: The islets were dissociated into single cells in 0.0025% trypsin in cell dissociation buffer (Hank's based) for 3-5 minutes. Cells were washed once in serum-containing medium, plated onto 22-mm polylysine-coated coverslips and allowed to settle overnight. Adenovirus particles adNPY-Venus (Tsuboi et al., 2006) or adNPY-mCherry (Meur et al., 2010) was added and cells were imaged 24-36 hours later. Cells selected for experiments expressed the granule marker and appeared healthy. Cells were imaged in a standard solution containing (mM): 138 NaCl, 5.6 KCl, 1.2 MgCl2, 2.6 CaCl2, 20 D-glucose, 5 HEPES (pH 7.4 with NaOH) (Barg et al., 2002; Gandasi and Barg, 2014). For depolarization dependent exocytosis experiments, glucose was 10 mM and the solution supplemented with 2 μM forskolin and 200 μM diazoxide, a K^+-ATP-channel opener that prevents glucose-dependent depolarization. Exocytosis was then evoked with high K^+ solution (75 mM KCl equimolarly replacing NaCl). High K^+ was applied by computer-timed local pressure ejection through a glass pipette similar to those used for patch clamp. All experiments were carried out at ˜32° C. Cells were imaged using a custom-built lens-type total internal reflection (TIRF) microscope based on an Axiovert 135 microscope with a 100×/1.45 objective (Carl Zeiss). Excitation was from a DPSS laser at 491 (Cobolt, Stockholm, Sweden), controlled with an acousto-optical tunable filter (AA-Opto, France) and using dichroic Di01-R488/561 (Semrock) and emission filter FF01-523/610 (Semrock). Scaling was 160 nm per pixel and exposure time 100 ms per frame at 10 frames/s. Exocytosis events were found by eye. The moment of exocytosis was defined as the first significant change (2 standard deviations) from the pre-exocytosis baseline. This definition applied to both types of events, with or without preceding flash. The decay time was then defined as the time from exocytosis until the signal reached less than one third of the amplitude of the event. Traces were read out as DF, defined as average fluorescence in a 0.5 μm circle minus the average fluorescence in a surrounding annulus of 0.8 μm. The point of exocytosis was calculated by fitting the granule fluorescence during exocytosis with a discontinuous function (Eq 1), which assumes constant fluorescence before fusion, an inverted exponential decay just after fusion, and finally exponential decay during content release:
where t is time; c is average fluorescence in a 0.48 μm wide circle at the granule site; A1, A2 and A3 are the fluorescence values at the plateaus; τ1 and τ2 are the decay constants for the fluorescence increase after fusion and content release; and t1 and t2 are the times of fusion and release, respectively.

The conditions of data set [3]: cited from earlier work.
The test system of another data set is human islets. As to the kind of experiment: glucose-stimulated insulin secretion in human islets. The data set is classed as cell-based. As for the experimental part: The incubation medium was subsequently collected, the islets sonicated briefly (1-2 periods of 10 s) in acidic ethanol and frozen overnight. Samples from the medium and the islets were appropriately diluted and analyzed in duplicates for insulin using an immunoassay kit from Mesoscale Discovery (Rockville, MD, USA). Secretion was normalized to insulin content and expressed in relation to that at 20 mM glucose. In some experiments, the islets were placed in a closed 10-μL Teflon tubing perfusion. The chamber was perfused with buffer at a rate of 60 μL/min (AutoMate Scientific, Berkeley, CA). […] Three fractions were collected for each condition and analyzed for insulin. The results are presented as one data point per condition, which represents the average of the last two fractions at that condition. The first fraction was excluded since it was influenced by the preceding condition.

In a further data set the test system is iGABAARI. As to the kind of experiment: whole-cell patch-clamp single-channel currents in β cells of intact human islets, iGABAARI. Particulars: for GABA-activated single-channel conductance: 100 nM GABA; for reduction of Ka for GABA activation in T2D donors: T2D vs ND donors. The data set is classed as cell-based. As for the experimental part:
as §1, §2

Setting [4] is: activated by interstitial GABA, room temperature.
Where [5] appears, read: 20 mM glucose, with GABA, one T2D donor.
Setting [6] is: diazepam 1 μM, propofol 10 μM, pentobarbital 100 μM, zolpidem 200 nM.
Setting [7] is: diazepam 1 μM, propofol 10 μM, pentobarbital 100 μM, zolpidem 100 or 200 nM.
Setting [8] is: GLP-1 application and following washout, n=5.

Entries after “also recorded” stand apart in the source; their conditions may differ. Like-named read-outs stand apart in the source and are kept apart here. Where no end group is shown, it is not given here. Some results are limits rather than exact numbers.

Turning to `NCCCC(=O)O` [GABA, gamma-aminobutyric acid], the “GABA concentration above which receptors are desensitized and stop working” value in data set [1] was “exceeding 1000 nM”. Further, in data set [1], the “optimal GABA concentrations for active iGABAARs” value is on record as 100 nM to submicromolar. Besides, in data set [1] (100 nM GABA, Vp=−70 mV, 34° C.), the “effect on mean current (Imean)” value is on record as “significantly (P<0.05) enhanced”. Also, the “effect on open probability (Po)” value in data set [1] (100 nM GABA, Vp=−70 mV, 34° C.) is recorded as “significantly (P<0.05) enhanced”. The “GABA concentration at which GABA-activated Cl− currents were evoked” value in data set [1] (GABA applied 1 to 10^4 nM) is reported as above 10 nM. Also, the “effect on mean open times To” value in data set [1] (islets from ND and T2D donors) is listed as “did not affect”. In data set [1] (islets from ND and T2D donors), the “effect on rate (frequency) of channel openings” value is listed as “increased”. Besides, the “GABA concentration at which channels start to desensitize” value in data set [1] (kinetic model) was “about 1 μM”. Further, the “GABA concentration at peak opening rate” value with iGABAARII (ND donors, 34° C.) came to 1 µM; in the data set on iGABAARII (ND donors, room temperature), 0.1 µM. Moreover, in the data set with iGABAARII (ND donors, 34° C. vs RT), the “increase of Ka on raising the temperature to 34° C.” value was found to be 23 fold. For the same compound, the “reduction of Ka for GABA activation in T2D donors” value in the data set on iGABAARII (T2D vs ND donors, 34° C.) is reported as 300 fold; with iGABAARI (34° C.), around 3 fold; in the data set with iGABAARI (RT), 6 fold. The cord conductance with iGABAARII (setting [4]) worked out at 76 pS; in the data set with iGABAARI (setting [4]), 37 pS. Moreover, the exocytosis is reported as around 5 granules/min in data set [2] (20 mM glucose >10 min, GABA present, ND donors) and around 1 granules/min in data set [2] (setting [5]). The “exocytosis events per area and time” value is listed as 0.095±0.01 10^−3·tm^−2·s^−1 in data set [2] (20 mM glucose >10 min, GABA present, two ND donors, n=6); 0.019±0.008 10^−3·tm^−2·s^−1 in data set [2] (setting [5]); 2.5±0.6 10^−3·tm^−2·s^−1 in data set [2] (75 mM K+ depolarization, 100 nM GABA, n=7). The “exocytosis for an average-sized cell” value in data set [2] (75 mM K+ depolarization, 100 nM GABA) is on record as around 150 granules/min. In addition, the “loss of NPY-Venus from individual granules (decay constant)” value in data set [2] (75 mM K+ depolarization, presence of GABA) worked out at 0.86 ± 0.09 s. Also, the “time to maximum blood serum level of GABA” value in data set [3] (after administration in connection with ingestion of food) is “approximately 45 minutes”. Besides, in data set [3] (from the administration of GABA), the “time after which blood serum levels of GABA markedly decrease” value is on record as “approximately 90 minutes”. Moreover, the “insulin secretion normalized to the 20 mM glucose response” value in the data set on human islets (100 nM GABA, 10 ND donors) is on record as 1.6±0.2; in the data set on human islets (GABA, islets from three ND donors) it was 0.7±0.01. Besides, the “increase of insulin secretion” value with human islets (100 nM GABA, 10 ND donors, average) is reported as “approximately 60%”. Also, the GABA-activated single-channel conductance in the data set on iGABAARI (islets from ND donors) is 41±3 pS; in the data set on iGABAARI (islets from T2D donors), 55±5 pS. The “GABA concentration at maximal rate (frequency) of channel openings” value with iGABAARI (ND donors) came to 100 nM.
As to `Br.COc1ccc(-c2ccc(=N)n(CCCC(=O)O)n2)cc1` [SR95531], the “inhibition of iGABAAR (GABA-activated) currents” value in data set [1] is “inhibited”.
Take `CN1C(=O)CN=C(c2ccccc2)c2cc(Cl)ccc21` [diazepam]: in data set [1] (setting [6]), the “effect on mean single-channel current (Imean)” value is “significantly increased” and the “effect on opening frequency of iGABAARs” value was “significantly increased”. In addition, the “modulation of iGABAAR-mediated single-channel currents” value (“modulation” for short) in data set [1] (setting [7]) was “enhanced”.
For the compound `CCCC(C)C1(CC)C(=O)NC(=O)NC1=O` (stereo not shown) [pentobarbital, 5-ethyl-5-(1-methylbutyl)-barbiturate], in data set [1] (setting [6]), the “effect on mean single-channel current (Imean)” value was “significantly increased” and the “effect on opening frequency of iGABAARs” value was “significantly increased”. In addition, the “modulation” value in data set [1] (setting [7]) is recorded as “enhanced”.
Regarding `CC(C)c1cccc(C(C)C)c1O` [propofol], in data set [1], the “effect on mean single-channel current (Imean)” value is on record as “significantly increased”, the “effect on opening frequency of iGABAARs” value is on record as “significantly increased” and the “modulation” value is “enhanced”.
As to `Cc1ccc(-c2nc3ccc(C)cn3c2CC(=O)N(C)C)cc1` [zolpidem], in data set [1] (setting [6]), the “effect on mean single-channel current (Imean)” value was “not” and the “effect on opening frequency of iGABAARs” value was “not”. Besides, the “modulation” value in data set [1] (setting [7]) is “did not modulate and not”.
Consider “GLP-1: metabolic, gastrointestinal peptide hormone secreted by L-cells in the gut; enhances insulin secretion (HAEGTFTSDVSSYLEGQAAKEFIAWLVKGR; ends and bridges not checked; UniProt P01275 98-127, looked up) [reference compound]”, for which, in data set [1] (GABA signalling stays elevated in absence of GLP-1), the “time β-cells remember the GLP-1 activation after GLP-1 is no longer in circulation” value is listed as “up to 30 minutes”. In data set [1] (GLP-1 50 pM in the presence of GABA 10 nM), the “effect on iGABAAR-mediated single-channel currents” value is listed as “potentiated”. For the same compound, the “effect on single-channel conductance” value in the data set with iGABAARII (setting [8]) and with iGABAARI (setting [8]) was “did not significantly change” throughout. Moreover, in the data set with iGABAARI (GLP-1 50 pM, n=6), the “effect on opening frequency of iGABAARI channels” value is reported as “significantly increased”. Moreover, the “opening frequency / current enhancement after GLP-1 washout” value with iGABAARI (post GLP-1 vs before GLP-1 application) is listed as “remained, albeit at a reduced level; also recorded: remained significantly higher”.
For the compound picrotoxin [reference compound], the “inhibition of iGABAAR (GABA-activated) currents” value in data set [1] (antagonist 100 μM where stated) is “inhibited”. For the same compound, the “effect on the GABA-induced change of insulin secretion” value in the data set on human islets (picrotoxin added with GABA, ND donors) was “reversed”.
